In assay [1] the test system is effect produced in the guinea pig by a histamine aerosol. Briefly: Test of A. K. Armitage, histamine aerosol at 4%. It counts as in vivo. As to conditions: oral administration of 5 mg/kg. The method, then:
When submitted to the test of A. K. Armitage, Brit J. Pharmacol. 17, 196, (1961), the compounds according to the invention administered by oral route at doses between 0.5 and 10 mg/kg, depending on the compounds, inhibit by 50% the effect produced in the guinea pig by a histamine aerosol at 4%. For certain of these compounds, the effect is still very strong 48 hours after oral administration.
By way of non-restricting example, the oral administration of 5 mg/kg of the compound of example 1, inhibits for more than 48 hours the broncho-spasm caused be a histamine aerosol at 4%. In addition, a reduction of the anaphylactic cutaneous reaction is observed in the rat after a single administration of 20 mg/kg per os of this compound.

A further assay has as its target T1, A 1 receptors (Homo sapiens, UniProt P30542).
T1 sequence (P30542 1-326): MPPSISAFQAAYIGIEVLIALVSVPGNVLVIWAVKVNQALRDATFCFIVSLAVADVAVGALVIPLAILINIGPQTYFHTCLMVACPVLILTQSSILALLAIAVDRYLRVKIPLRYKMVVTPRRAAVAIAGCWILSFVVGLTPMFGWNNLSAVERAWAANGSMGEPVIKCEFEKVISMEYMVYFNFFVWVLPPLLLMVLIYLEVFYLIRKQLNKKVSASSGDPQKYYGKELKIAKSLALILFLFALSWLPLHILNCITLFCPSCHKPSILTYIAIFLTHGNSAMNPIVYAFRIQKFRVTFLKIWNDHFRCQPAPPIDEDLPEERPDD
The experiment in a line: Purinergic A 1 receptors. The format is binding.

A word on the IC50: it is the concentration at which inhibition is half-maximal. A higher IC50 goes with lower potency. For the molecule `CC(C)Cn1c(=O)n(C)c(=O)c2[nH]c(CCN3CCN(C(c4ccccc4)c4ccccc4)CC3)nc21` [Example 1, 1-methyl-3-isobutyl-8-[2-(4-diphenylmethyl-piperazinyl)ethyl]xanthine], the “duration of inhibition of the broncho-spasm caused by a histamine aerosol at 4%” value in assay [1] is reported as “more than 48 hours”. This molecule also showed an IC50 against A 1 receptors of more than 100 µM.

Values taken from patent US4548820A, “Xanthine compounds” (Adir, priority 1982, dated 1985).
